Laboratory results from US6555322B1, “α2-macroglobulin receptor as a receptor for CTGF” (FibroGen, Inc., priority 1999, dated 2003).

Legend:
[1] = tested on: MG63 cells; assay: Internalization and degradation of 125I-rhCTGF during binding, with additives; type: cell-based, human; conditions: for degraded/internalized 125I-CTGF with additive: both cultures (control and TGF-β treated)
Description: Another experiment was performed in which the internalization and degradation of CTGF was followed during the time course of binding to the cells. Various additives were included in the binding medium to examine the effect(s) and specificity of CTGF binding and internalization through LRP.
MG63 cells were plated and treated with TGF-β for 24 or 48 hours as in the previous experiment.

[2] = biological target: T1, LRP (Mus musculus, UniProt Q91ZX7); assay: RAP-GST competition of CTGF binding on BMS-2 cells; parameters: species or system murine
T1 construct: endogenous in cells; host or cells: BMS2 (BMS-2) murine bone marrow stromal cells
Description: In a further study, receptor associated protein (RAP), a known inhibitor of ligand binding to LRP, was prepared. Plasmid DNA containing the human RAP cDNA sequence was obtained (ATCC as the I.M.A.G.E. Consortium Clone ID 511113, Lennon et al., 1996, Genomics, 33:151-152). The RAP sequence was sub-cloned into the pGEX4T-1 vector (Pharmacia) for the synthesis of a RAP-GST (glutathione S-transferase) fusion protein in E. coli. The fusion protein was purified over glutathione-Sepharose as described (Warshawsky et al., 1993, J. Biol. Chem., 268:22046-22054), and tested as a competitor of CTGF binding.

[3] = tested on: MG63 cells; assay: CTGF production and accumulation in medium and cell layer (Western blot, densitometry); type: cell-based, human; conditions: RAP 10 nM
Description: To determine whether LRP was involved in the mediation of a CTGF signaling event, experiments were conducted to study the effect of anti-LRP antibodies on CTGF production and accumulation. MG63 cells were plated at 2.5×10^4 cells/cm^2 in 24 well plates in MEM with 10% FBS. The following day, the medium was changed to MEM with 0.5% FBS. Additionally, half of the wells were supplemented with 20 ng/ml TGF-β2. Some of the cells also received either anti-LRP antibodies (American Diagnostic) (3 ug/ml 3402 and 1 ug/ml 3501) or RAP (10 nM). At 15, 23, and 47 hours after exposure to these additives, medium and cell layers were harvested.
The harvested media was then incubated with heparin-SEPHAROSE for 4 hours. The beads were washed twice with RIPA buffer and the bound fraction was eluted with SDS-PAGE sample buffer. The cell layer was washed twice with PBS, then extracted for 15 min at 4° C. with RIPA buffer. The cell layer was collected by scraping, and centrifuged to remove the insoluble material. The soluble fraction was used for SDS-PAGE analysis. Both medium and cell layer samples were run non-reduced on 12% SDS-PAGE, then blotted to nitrocellulose. The nitrocellulose membranes were incubated with a rabbit polyclonal antibody made against rhCTGF (using procedures well known in the art), the data of which is shown in FIGS. 22A and 22B.

[4] = biological target: T1, LRP; assay: Competitive binding and cross-linking of LRP ligands with 125I-CTGF on BMS-2 cells; parameters: species or system murine; conditions: 50 pM 125I-CTGF; CTGF 21.5 nM, BP5 201-218 50 μg/ml, LF 25 μg/ml, apo E 20 μg/ml, LpL 20 μg/ml
Description: To examine whether ligands known to bind to LRP inhibit CTGF binding, BMS-2 cells were labeled with 50 pM ^125I-CTGF in the presence or absence of unlabeled ligand (CTGF: 21.5 nM; BP5^201-218: 50 μg/ml or […] (Campbell and Andress, 1997, Am. J. Physiol., 273:E1005-13); lactoferrin (LF): 25 μg/ml or 250 nM; apo E: 20 μg/ml or 574 nM; lipoprotein lipase (LpL): 20 μg/ml or 400 nM). The cells were cross-linked and the receptor complexes were solubilized, processed on SDS-PAGE and visualized by autoradiography.

[5] = biological target: T2, high Mr CTGF binding protein on BMS-2 cells (Mus musculus, UniProt Q91ZX7); assay: Binding analysis of 125I-CTGF competition with LRP ligands on BMS-2 cells; parameters: species or system murine; conditions: 0.1 nM 125I-CTGF
T2 construct: endogenous in cells; host or cells: BMS2 (BMS-2) murine bone marrow stromal cells
Description: BMS-2 cells were incubated with 0.1 nM ^125I-CTGF in the presence of unlabeled CTGF, recombinant human apoE, low density lipoprotein purified from human plasma (LDL), or lipoprotein lipase purified from bovine milk (LpL).

[6] = tested on: MG63 cells; assay: Internalization and degradation kinetics of 125I-CTGF with heparin or lactoferrin; type: cell-based, human; conditions: 3 μg/ml heparin or lactoferrin
Description: Experiments were performed in which the internalization and degradation kinetics of CTGF were followed in the presence or absence of a known LRP ligand, lactoferrin. Kinetics were followed in the presence or absence of 3 μg/ml heparin or lactoferrin. ^125I-CTGF was bound to MG63 cells at 4° C. and free CTGF was removed by washing the cells. Fresh medium was placed on the cells, and the cells were transferred to 37° C. At each time point, the medium was removed and TCA precipitated. Degraded ^125I-CTGF was quantified by measuring the cpm in the non-precipitable fraction (see FIG. 17). In parallel experiments, ^125I-CTGF was bound to MG63 cells at 4° C. and free CTGF was removed by washing the cells. Fresh medium was placed on the cells, and they were transferred to 37° C. At each time point, the cell layer was removed by extensive trypsinization at 4° C. The cells were centrifuged and the cpm associated with the pellet, the internalized fraction, was determined (see FIG. 18).

T1 sequence (Q91ZX7 20-4545): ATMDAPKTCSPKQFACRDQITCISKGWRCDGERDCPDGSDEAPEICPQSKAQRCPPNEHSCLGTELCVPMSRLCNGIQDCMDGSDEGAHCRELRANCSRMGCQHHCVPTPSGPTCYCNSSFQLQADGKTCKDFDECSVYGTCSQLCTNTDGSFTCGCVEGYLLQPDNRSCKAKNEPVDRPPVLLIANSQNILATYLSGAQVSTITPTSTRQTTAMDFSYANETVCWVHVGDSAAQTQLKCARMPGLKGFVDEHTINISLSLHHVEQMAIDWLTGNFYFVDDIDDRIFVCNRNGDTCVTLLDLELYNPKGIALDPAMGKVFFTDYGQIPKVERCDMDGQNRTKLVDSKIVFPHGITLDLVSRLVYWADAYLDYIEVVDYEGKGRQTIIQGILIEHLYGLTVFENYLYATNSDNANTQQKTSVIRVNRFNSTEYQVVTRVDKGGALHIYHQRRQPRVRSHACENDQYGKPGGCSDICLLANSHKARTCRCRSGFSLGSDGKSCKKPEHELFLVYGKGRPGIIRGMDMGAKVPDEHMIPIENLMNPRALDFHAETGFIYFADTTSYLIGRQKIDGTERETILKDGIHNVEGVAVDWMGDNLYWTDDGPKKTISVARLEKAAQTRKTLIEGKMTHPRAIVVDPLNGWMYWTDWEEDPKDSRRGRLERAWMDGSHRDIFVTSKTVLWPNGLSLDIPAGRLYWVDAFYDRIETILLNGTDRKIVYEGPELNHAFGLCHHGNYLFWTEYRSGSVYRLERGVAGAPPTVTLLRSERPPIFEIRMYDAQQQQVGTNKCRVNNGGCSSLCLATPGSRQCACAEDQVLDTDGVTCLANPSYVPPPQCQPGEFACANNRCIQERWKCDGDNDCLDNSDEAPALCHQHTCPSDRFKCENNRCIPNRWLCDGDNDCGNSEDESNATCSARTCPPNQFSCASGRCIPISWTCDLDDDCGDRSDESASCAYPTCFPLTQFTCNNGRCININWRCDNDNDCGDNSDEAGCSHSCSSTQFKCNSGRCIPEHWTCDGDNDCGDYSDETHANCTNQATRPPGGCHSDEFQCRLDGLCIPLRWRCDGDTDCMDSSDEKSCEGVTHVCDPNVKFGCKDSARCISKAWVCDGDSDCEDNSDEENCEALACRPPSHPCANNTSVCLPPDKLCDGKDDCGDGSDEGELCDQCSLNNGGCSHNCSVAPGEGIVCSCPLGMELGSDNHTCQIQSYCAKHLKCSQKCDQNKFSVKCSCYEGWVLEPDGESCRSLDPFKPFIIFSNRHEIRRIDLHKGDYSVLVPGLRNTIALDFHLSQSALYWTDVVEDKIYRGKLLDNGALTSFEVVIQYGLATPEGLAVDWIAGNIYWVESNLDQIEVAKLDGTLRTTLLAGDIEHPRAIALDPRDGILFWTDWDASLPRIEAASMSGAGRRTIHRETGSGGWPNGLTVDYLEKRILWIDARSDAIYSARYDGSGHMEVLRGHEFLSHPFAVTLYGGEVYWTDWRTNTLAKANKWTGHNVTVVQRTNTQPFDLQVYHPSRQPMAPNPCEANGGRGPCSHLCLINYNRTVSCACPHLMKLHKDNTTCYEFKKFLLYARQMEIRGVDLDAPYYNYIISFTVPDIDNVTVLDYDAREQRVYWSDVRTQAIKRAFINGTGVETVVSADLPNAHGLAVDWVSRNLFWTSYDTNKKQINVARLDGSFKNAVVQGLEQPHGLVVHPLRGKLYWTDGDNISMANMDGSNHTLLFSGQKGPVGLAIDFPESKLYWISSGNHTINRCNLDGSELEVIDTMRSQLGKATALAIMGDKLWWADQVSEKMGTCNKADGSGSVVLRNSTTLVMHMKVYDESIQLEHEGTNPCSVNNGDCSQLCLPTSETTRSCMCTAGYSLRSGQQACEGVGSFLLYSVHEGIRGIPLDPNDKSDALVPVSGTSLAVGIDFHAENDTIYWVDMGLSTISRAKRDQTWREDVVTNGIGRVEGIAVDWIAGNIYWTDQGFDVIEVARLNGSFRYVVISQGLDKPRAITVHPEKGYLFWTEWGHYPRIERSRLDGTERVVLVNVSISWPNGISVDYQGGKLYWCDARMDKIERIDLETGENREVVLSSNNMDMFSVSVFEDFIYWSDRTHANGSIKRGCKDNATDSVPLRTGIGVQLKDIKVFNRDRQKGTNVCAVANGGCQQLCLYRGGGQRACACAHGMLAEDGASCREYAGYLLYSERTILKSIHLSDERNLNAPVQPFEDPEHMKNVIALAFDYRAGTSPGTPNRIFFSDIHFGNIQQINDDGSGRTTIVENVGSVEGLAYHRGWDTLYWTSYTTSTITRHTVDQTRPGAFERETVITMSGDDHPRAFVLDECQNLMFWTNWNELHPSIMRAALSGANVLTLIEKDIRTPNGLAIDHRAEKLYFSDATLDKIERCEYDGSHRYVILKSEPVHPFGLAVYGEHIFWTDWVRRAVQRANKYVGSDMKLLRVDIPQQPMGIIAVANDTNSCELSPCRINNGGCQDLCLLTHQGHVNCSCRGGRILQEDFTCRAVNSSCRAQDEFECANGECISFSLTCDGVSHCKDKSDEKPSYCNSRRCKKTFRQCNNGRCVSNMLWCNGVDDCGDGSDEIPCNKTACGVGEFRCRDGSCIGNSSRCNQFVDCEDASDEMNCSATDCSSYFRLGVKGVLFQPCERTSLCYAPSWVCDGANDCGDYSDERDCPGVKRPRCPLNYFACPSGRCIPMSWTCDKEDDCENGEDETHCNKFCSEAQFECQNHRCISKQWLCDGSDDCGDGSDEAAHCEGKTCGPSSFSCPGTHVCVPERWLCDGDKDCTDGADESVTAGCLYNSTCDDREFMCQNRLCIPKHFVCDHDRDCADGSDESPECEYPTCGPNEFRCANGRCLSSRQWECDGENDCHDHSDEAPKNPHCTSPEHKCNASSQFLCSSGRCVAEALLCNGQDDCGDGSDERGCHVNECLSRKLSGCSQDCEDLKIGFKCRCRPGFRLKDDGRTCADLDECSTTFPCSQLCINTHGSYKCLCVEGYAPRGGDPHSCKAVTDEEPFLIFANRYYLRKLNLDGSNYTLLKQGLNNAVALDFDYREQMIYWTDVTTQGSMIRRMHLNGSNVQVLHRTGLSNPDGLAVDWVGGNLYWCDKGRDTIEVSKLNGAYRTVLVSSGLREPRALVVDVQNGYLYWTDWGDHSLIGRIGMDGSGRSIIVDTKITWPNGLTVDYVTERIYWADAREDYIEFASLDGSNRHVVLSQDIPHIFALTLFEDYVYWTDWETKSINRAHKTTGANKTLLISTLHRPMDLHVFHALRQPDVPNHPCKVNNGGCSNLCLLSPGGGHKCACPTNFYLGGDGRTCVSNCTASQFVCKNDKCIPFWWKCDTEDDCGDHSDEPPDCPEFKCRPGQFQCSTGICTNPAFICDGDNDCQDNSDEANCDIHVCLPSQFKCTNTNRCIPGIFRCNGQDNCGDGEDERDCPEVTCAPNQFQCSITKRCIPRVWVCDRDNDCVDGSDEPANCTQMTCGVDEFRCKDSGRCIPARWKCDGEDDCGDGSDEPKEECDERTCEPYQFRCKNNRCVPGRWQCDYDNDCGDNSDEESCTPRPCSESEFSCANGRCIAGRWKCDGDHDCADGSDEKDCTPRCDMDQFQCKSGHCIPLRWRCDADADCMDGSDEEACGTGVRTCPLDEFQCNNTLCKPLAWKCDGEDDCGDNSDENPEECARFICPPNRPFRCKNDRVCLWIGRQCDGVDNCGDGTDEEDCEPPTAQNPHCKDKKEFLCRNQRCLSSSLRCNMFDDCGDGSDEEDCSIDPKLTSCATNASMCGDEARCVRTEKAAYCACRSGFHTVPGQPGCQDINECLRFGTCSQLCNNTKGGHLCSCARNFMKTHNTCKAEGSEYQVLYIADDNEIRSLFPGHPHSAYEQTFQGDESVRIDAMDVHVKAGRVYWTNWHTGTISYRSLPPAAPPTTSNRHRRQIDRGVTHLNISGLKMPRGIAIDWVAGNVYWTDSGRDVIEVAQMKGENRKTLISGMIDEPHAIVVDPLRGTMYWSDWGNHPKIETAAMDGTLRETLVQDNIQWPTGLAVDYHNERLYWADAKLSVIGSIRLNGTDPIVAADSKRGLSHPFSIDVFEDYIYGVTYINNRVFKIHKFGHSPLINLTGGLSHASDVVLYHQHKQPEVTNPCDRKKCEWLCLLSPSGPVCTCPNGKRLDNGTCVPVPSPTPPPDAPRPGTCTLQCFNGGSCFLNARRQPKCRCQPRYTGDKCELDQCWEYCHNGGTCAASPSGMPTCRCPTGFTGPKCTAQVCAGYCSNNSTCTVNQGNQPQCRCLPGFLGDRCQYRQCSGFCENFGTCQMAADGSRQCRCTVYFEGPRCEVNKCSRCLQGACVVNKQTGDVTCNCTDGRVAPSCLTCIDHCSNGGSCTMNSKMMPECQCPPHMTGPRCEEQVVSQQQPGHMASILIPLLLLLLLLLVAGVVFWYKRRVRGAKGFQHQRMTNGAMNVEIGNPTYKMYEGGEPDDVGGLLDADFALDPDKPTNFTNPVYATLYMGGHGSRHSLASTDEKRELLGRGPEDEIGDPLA
T2 sequence (Q91ZX7 20-4545): as above

CC(C)C[C@H](NC(=O)[C@@H](NC(=O)N[C@@H](Cc1ccccc1)C(=O)O)[C@@H]1CCN=C(N)N1)C(=O)N[C@H](C=O)Cc1ccccc1 [Chymostatin]
degraded/internalized 125I-CTGF with additive [1]: no appreciable affect

RAP-GST: human receptor associated protein as glutathione S-transferase fusion protein made in E. coli; inhibitor of ligand binding to LRP
competition for CTGF binding to LRP [2]: able to compete | degraded/internalized 125I-CTGF with additive [1]: to background levels | CTGF levels in cell layer, RAP treated samples [3]: slightly increased levels | CTGF medium concentration at 15 and 23 hours [3]: an increase | CTGF medium levels at 47 hours [3]: returned to basal levels

GST: GST protein by itself, control for RAP-GST
competition for CTGF binding to LRP [2]: no competitive activity

CCN(CC)CCCC(C)Nc1ccnc2cc(Cl)ccc12 (centres unmarked) [chloroquin, Chloroquin]
rhCTGF remaining internalized, TGF-β treated cultures ([1]; chloroquin treated samples, TGF-β treated cultures): ~400 fmol | rhCTGF remaining internalized, control cultures ([1]; chloroquin treated samples, control cultures): About 1000 fmoles | secretion of CTGF degradation products into the medium ([1]; in the presence of chloroquin): not secreted into the medium

apolipoprotein E [apoE, reference compound]
competing the binding to the LRP receptor [4]: very effective in competing | competition with 125I-CTGF [5]: competed

heparin [reference compound]
rate of degradation of CTGF [6]: reduced the rate | rate of internalization of CTGF [6]: reduced the rate
